Test results from patent US10640545B2 (THE GOVERNORS OF THE UNIVERSITY OF ALBERTA, priority 2017, dated 2020).
Where a SMILES comes first, the peptide text is derived from it. [ ]: non-standard residue; d: D form. Phe(4-Br) = N[C@@H](Cc1ccc(Br)cc1)C(=O)O; NMeL = CN[C@@H](CC(C)C)C(=O)O; Nle = CCCC[C@H](N)C(=O)O; Aib = CC(C)(N)C(=O)O

Assays:
[1] = molecular target: T1, NEP (Homo sapiens, UniProt P08473); assay: Neprilysin degradation assay (LC-MS, quantitative); conditions: 37° C.
Method: (§1) This experiment compared the in vitro NEP stability of the Arg/Leu peptides of the embodiments to native apelin isoforms and their A2 substituted counterparts. Peptides were incubated with recombinant human NEP (rhNEP, Sino Biological) at 37° C. for up to 72 h, and the extent of degradation was analyzed via LC-MS because of the overlapping elution patterns of peptide fragments. […] (McKinnie, S. M. K., et al. ChemBioChem: 17, 1495-1498 (2016)). […] (Dion, N., et al., Biochem. J.: 311, 623-627 (1995); Bateman Jr., R. C., et al., J. Biol. Chem.: 264, 6151-6157 (1989); McMurray, J. J. et al., J. Med.: 371, 993-1004 (2014)).
(§2) Apelin peptides were dissolved in Milli-Q water (1 mM). Recombinant human neprilysin (rhNEP, Sino Biological) was reconstituted in Tris buffer (100 mM Tris, 100 mM NaCl, 10 μM ZnCl2, pH 7.5). To initiate the assay, rhNEP was diluted in Tris buffer (3.1 nM final concentration), and preincubated at 37° C. for 10 minutes prior to the addition of 5 μL of apelin peptide (1 mM) and 1.5 μL internal standard dansyl-Tyr-Val-Gly-OH (1 mM). Aliquots (10 μL) were removed at 0, 1, 4, 24, and 72 h, quenched with 0.1 M EDTA (10 μL), diluted to 100 μL with Milli-Q water and analyzed by LC-MS. Assays were performed in triplicate (n=3) for each time point. Integrated peak areas of the parent apelin peptide and internal standard derived from LC-MS analyses, were extracted using Mass Hunter software (version B.04.00) and compared in positive extracted ion count modus (+EIC, extracted-ion chromatogram). […] (apelin:dansyl-YVG), to the same ratio at the different assay time points. The decrease in apelin:dansyl-YVG ratio was converted to a percentage of cleaved peptide over time.
(§3) The extent of degradation was analyzed via LC-MS because of the overlapping elution patterns of peptide fragments (NEP).
(§4) Native apelin-17 (2) and apelin peptides 5, 54, 56, 57, 58 and 59 were dissolved in Milli-Q water (1 mM). Recombinant human neprilysin (rhNEP, Sino Biological) was reconstituted in Tris buffer (100 mM Tris, 100 mM NaCl, 10 μM ZnCl2, pH 7.5). To initiate the assay, rhNEP was diluted in Tris buffer (3.1 nM final concentration) and preincubated at 37° C. for 10 min prior to the addition of 5 μL of apelin peptide (1 mM) and 1.5 μL of internal standard dansyl-Tyr-Val-Gly-OH (1 mM). Aliquots (10 μL) were removed at 0, 1, 4, 24, and 72 h, quenched with 0.1 M EDTA (10 μL), diluted to 100 μL with Milli-Q water, and analyzed by LC-MS. Assays were performed in triplicate (n=3) for each time point. Integrated peak areas of the parent apelin peptide and internal standard derived from LC-MS analyses were extracted using Mass Hunter software (version B.04.00) and compared in positive extracted ion count modus (+EIC). The extent of proteolysis was determined by comparing the initial (0 h) ratio of the integrated extracted ions of the parent apelin peptide to the internal dansyl-YVG standard (apelin/dansyl-YVG) to the same ratio at the different assay time points. The decrease in apelin/dansyl-YVG ratio was converted to a percentage of cleaved peptide over time.

[2] = molecular target: T1, NEP; assay: Kinetic parameters for NEP cleavage; format: biochemical; set-up: purchased Sino Biological; conditions: enzyme NEP
[3] = In vitro peptide stability in human blood plasma (RP-HPLC)
[4] = molecular target: neprilysin (NEP) (Homo sapiens, UniProt P08473); assay: in vitro; conditions: human, pH 7.5
Method: as §1, §2, §3, §4

[5] = molecular target: T2, KLKB1 (plasma kallikrein) (Homo sapiens, UniProt P03952); assay: In vitro KLKB1 stability (half-life); format: in vitro ADME; conditions: human
T2 construct: purchased Novoprotein

[6] = test system: anesthetized mice; assay: Blood pressure assay in anesthetized mice; format: in vivo; conditions: 1.4 μM/kg body weight injected, SBP, DBP, MABP
In short: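 Mice were anaesthetized with 1.5% isoflurane/oxygen and kept at 36 °C. Peptide (1.4 μM/kg body weight) or saline was injected via the right jugular vein. Arterial pressure and heart rate were recorded continuously through a catheter in the aorta via the right carotid artery over 60 min and reported as SBP, DBP, MABP and HR.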

T1 sequence (P08473 whole entry, the tested form may be a part, canonical isoform): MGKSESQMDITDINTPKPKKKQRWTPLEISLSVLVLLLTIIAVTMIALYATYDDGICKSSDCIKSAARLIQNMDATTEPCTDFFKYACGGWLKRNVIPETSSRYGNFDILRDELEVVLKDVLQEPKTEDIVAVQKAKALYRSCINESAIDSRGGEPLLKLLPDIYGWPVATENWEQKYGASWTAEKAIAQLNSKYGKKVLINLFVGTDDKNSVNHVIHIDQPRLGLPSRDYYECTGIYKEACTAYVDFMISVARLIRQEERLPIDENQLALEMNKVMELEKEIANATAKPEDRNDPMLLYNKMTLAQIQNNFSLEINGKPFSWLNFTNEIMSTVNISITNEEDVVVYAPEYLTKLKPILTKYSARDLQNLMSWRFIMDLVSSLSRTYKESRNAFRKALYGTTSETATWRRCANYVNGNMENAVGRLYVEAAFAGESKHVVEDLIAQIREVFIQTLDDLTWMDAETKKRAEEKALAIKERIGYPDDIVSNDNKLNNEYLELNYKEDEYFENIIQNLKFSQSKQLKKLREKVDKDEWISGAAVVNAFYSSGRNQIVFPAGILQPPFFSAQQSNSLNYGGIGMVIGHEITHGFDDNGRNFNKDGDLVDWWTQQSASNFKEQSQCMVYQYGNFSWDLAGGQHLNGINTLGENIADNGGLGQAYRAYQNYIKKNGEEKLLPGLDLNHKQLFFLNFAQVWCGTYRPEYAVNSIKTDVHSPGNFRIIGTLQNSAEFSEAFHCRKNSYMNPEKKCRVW
Sequence of neprilysin (NEP) (P08473 whole entry): as the sequence (P08473 whole entry, the tested form may be a part, canonical isoform) above
T2 sequence (P03952 20-638): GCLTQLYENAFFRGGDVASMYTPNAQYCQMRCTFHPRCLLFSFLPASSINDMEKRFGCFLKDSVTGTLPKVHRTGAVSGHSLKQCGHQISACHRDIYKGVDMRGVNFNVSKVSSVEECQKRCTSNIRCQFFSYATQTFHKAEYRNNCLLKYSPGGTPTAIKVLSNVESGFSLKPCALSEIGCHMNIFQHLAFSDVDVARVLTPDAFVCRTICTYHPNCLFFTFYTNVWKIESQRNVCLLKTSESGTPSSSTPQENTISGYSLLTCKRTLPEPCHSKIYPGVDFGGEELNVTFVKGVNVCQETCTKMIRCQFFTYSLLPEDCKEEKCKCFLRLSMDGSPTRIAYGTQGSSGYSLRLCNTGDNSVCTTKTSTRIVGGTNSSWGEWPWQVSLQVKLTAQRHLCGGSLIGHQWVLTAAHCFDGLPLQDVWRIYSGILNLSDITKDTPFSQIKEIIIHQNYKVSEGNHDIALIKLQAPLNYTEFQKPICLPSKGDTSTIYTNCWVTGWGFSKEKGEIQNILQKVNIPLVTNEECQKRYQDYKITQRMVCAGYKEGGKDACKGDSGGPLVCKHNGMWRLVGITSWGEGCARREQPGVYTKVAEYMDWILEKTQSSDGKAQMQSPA

In the case of `CSCC[C@H](NC(=O)[C@@H]1CCCN1C(=O)CNC(=O)[C@H](CCCCN)NC(=O)[C@H](Cc1cnc[nH]1)NC(=O)[C@H](CO)NC(=O)[C@H](CC(C)C)NC(=O)[C@H](CCCNC(=N)N)NC(=O)[C@@H]1CCCN1C(=O)[C@H](CCCNC(=N)N)NC(=O)[C@H](CCC(N)=O)NC(=O)[C@H](CCCNC(=N)N)NC(=O)[C@H](CCCNC(=N)N)NC(=O)[C@H](Cc1ccccc1)NC(=O)[C@@H](N)CCCCN)C(=O)N1CCC[C@H]1C(=O)N[C@@H](Cc1ccccc1)C(=O)O` [Peptide 2, reference compound], the “t1/2 (rhNEP, h)” value ([1]; rhNEP 3.1 nM) is reported as 0.4 h, the “in vitro NEP proteolytic stability (in words)” value ([1]; rhNEP, up to 72 h, LC-MS) is reported as “degraded by NEP at rates comparable to those previously reported” and the Km [2] is reported as 190 ± 40 µM. For the same compound, the “kcat” value [2] was 3.4 ± 0.3 s⁻¹, the remaining at 0.5 h, 80 µM ([3]; human blood plasma) was 51 ± 17% and the remaining at 1 h, 80 µM ([3]; human blood plasma) was 39 ± 7%. For the same compound, the “t1/2 (hplasma, h)” value ([3]; plasma) was 0.02 h.
For `CCCC[C@H](NC(=O)[C@@H]1CCCN1C(=O)CNC(=O)[C@H](CCCCN)NC(=O)[C@H](Cc1c[nH]cn1)NC(=O)[C@H](CO)NC(=O)[C@H](CC(C)C)N(C)C(=O)[C@H](CCCNC(=N)N)NC(=O)[C@@H]1CCCN1C(=O)[C@H](CCCNC(=N)N)NC(=O)[C@H](CCC(N)=O)NC(=O)[C@H](CCCNC(=N)N)NC(=O)[C@H](CCCNC(=N)N)NC(=O)[C@H](Cc1ccccc1)NC(=O)[C@@H](N)CCCCN)C(=O)NC(C)(C)C(=O)N[C@@H](Cc1ccc(Br)cc1)C(=O)O` [Peptide 11] (H-KFRRQRPR[NMeL]SHKGP[Nle][Aib][Phe(4-Br)]-OH; C-terminus assumed), the half-life [4] was over 1800 min, the half-life [5] was 54 min and the “blood pressure lowering (hypotensive) effect” value [6] was “potent hypotensive activity that rivaled or bested that of native 2 or A2 variant 5”.
